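Interpolation was linear, between the two tested concentrations surrounding the appropriate level; five concentrations were tested over 48 hours in 96-well plates. TGI: concentration producing complete growth inhibition.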

What all share (test): growth of human tumour cells (NCI), 48 h
Test [1] deals with XF 498 CNS.
Test [2] relates to HOP-18 NSCLC.
Test [3] concerns SNB-78 CNS.
The test system of test [4] is DMS 114 small cell lung.
For test [5], the system named is LXFL 529 NSCLC.
For test [6], the system named is RXF-631 renal.
Test [7] deals with MDA-N.

Regarding `O/N=C1/CCCC/C1=C\c1ccc(Cl)c(Cl)c1`, the TGI worked out at 46.4 µM in test [1]; 59.8 µM in test [2]; 70.5 µM in test [3]; 59.8 µM in test [4]; 54.4 µM in test [5].

For `O=CN/C=C/c1ccccc1`, the TGI in test [2], in test [3], in test [6] and in test [5] was above 100 µM in each case.

On to `C[C@@H]1CC[C@@]2(C)OC(c3ccccc3)[C@H](CO)N2C1=O` (stereo not given in full), for which the TGI in test [1], in test [2], in test [3] and in test [4] was above 100 µM each time.

Regarding `O=S1Nc2cccc(C(F)(F)F)c2S1` (stereo not given), the TGI is 98.7 µM in test [1]; above 100 µM in test [2]; above 100 µM in test [3]; 83.2 µM in test [4]; above 100 µM in test [5].

Compound `CCNCC(=O)Nc1ccc2c(c1)C(=O)c1ccc(NC(=O)CNCC)cc1C2=O` showed a TGI in test [7] of 18.9 µM.

Take `Cc1nc2ccccc2c(=O)n1/N=C(\N=Nc1ccccc1)c1ccccc1Cl`: the TGI in test [1] is 44.9 µM; in test [2], 30.1 µM; in test [3], above 100 µM; in test [4], above 90.1 µM; in test [6], above 100 µM; in test [5] it was above 100 µM.

In the case of `CCOC(=O)C1CC(=O)C=C2CCCCC21` (stereo not given), the TGI in test [1], in test [3], in test [4], in test [6] and in test [5] was above 100 µM each time.

On to `O=C1CCCc2ccc([N+](=O)[O-])c(O)c21`, for which the TGI in test [3], in test [4] and in test [5] was above 100 µM each time.

As to `CC1OC(n2cc(F)c(=O)[nH]c2=O)CCC1=O` (stereo not given), the TGI in test [2], in test [3], in test [4], in test [6] and in test [5] was above 100 µM in each case.

As to `C[C@]12Cc3conc3C(O)=C1CC[C@@H]1C2CC[C@@]2(C)C1CC[C@@H]2O` (stereo not given in full), the TGI in test [1] is 33.9 µM; in test [2], above 100 µM; in test [3], above 100 µM; in test [5], 33.5 µM.

Take `CCOC(=O)NC(=O)c1cn(CCSCCOC(=O)NCCCCCCNC(=O)OCCSCCn2cc(C(=O)NC(=O)OCC)c(=O)n(C)c2=O)c(=O)n(C)c1=O`: the TGI in test [1] was 85.4 µM; in test [2], 1.02 µM; in test [3] it was above 100 µM; in test [6], 64 µM; in test [5] it was above 100 µM.

For the compound `COc1ccc2cc3c4cc(OC)c(OC)cc4ccn3c2c1`, the TGI in test [1], in test [2], in test [3], in test [4] and in test [5] was above 100 µM each time.

As to `CC1(C)C(=O)/C=C\C(=O)C(C)(C)C2=CC=C(O2)C(C)(C)C(=O)C(Br)C(Br)C(=O)C(C)(C)C2=CC=C1O2` (stereo not given), the TGI in test [7] is above 100 µM; in test [1], above 100 µM; in test [2] it was above 100 µM; in test [3], above 100 µM; in test [4], above 31.6 µM; in test [6], above 100 µM. Moreover, in test [5], the TGI was above 100 µM.

For `O=C(O)c1cnc2c(ccc3[nH]cccc32)c1=O`, the TGI in test [2], in test [3], in test [4] and in test [5] was above 100 µM each time.

Turning to `COc1cccc(/C=C2\CCC(CN(C)C)C2=O)c1` (stereo not given), the TGI in test [7] was 16.8 µM; in test [1] it was 33.6 µM; in test [2] it was 33.2 µM; in test [3], 66.5 µM; in test [4] it was 42.4 µM; in test [6], 20.2 µM. The compound also registered a TGI in test [5] of 6.45 µM.

In the case of `CC(=O)N1c2ccccc2N(C(C)=O)C1c1ccc(C2N(C(C)=O)c3ccccc3N2C(C)=O)[nH]1`, the TGI in test [1], in test [4], in test [6] and in test [5] was above 100 µM in each case.

Turning to `O=C1CCC2(c3ccc(Cl)cc3)Nc3ccccc3N12` (stereo not given), the TGI in test [1], in test [2], in test [3], in test [4], in test [6] and in test [5] was above 100 µM throughout.

Consider `COc1ccc(C2(Cl)C(Cl)(C(F)(F)F)C2(Cl)C(F)(F)F)cc1` (stereo not given), for which the TGI in test [1] is 25.5 µM; in test [2], 28.6 µM; in test [3], 29.7 µM; in test [4] it was 25 µM; in test [6] it was 30.3 µM; in test [5] it was 27.1 µM.

Take `N#CC(Sc1ccccc1)C(N)=O` (stereo not given): the TGI in test [1], in test [2], in test [3], in test [4], in test [6] and in test [5] was above 100 µM each time.

Regarding `C=CCCn1nc(-c2ccccc2)oc1=O`, the TGI in test [1], in test [2], in test [3] and in test [5] was above 100 µM each time.

In the case of `CC(C)N(C(=O)C12C3C4C5C3C1(C(=O)O)C5C42)C(C)C` (stereo not given), the TGI in test [1], in test [3], in test [4], in test [6] and in test [5] was above 100 µM each time.

For `C=CC12CCCCC1CC(C(=O)OC)=C(O)C2` (stereo not given), the TGI in test [1], in test [2], in test [3], in test [4], in test [6] and in test [5] was above 100 µM in each case.

As for `O=CCCn1[nH]c(=O)ccc1=O`, the TGI in test [3] and in test [4] was above 100 µM throughout.

As to `NC1=NN(c2ccccc2)C(=O)C1C(=O)C(=O)Nc1ccccc1` (stereo not given), the TGI in test [1], in test [2], in test [3], in test [4] and in test [5] was above 100 µM throughout.

With `CC(C)C1=Cc2ccc3c(c2C(=O)C1=O)CCCC3`, the TGI amounted to 19.3 µM in test [7]; 5.53 µM in test [1]; 8.96 µM in test [2]; 11.9 µM in test [3]; 3.61 µM in test [4]; 25.1 µM in test [6]. Besides, the TGI in test [5] is 2.52 µM.

On to `Cn1cnc([N+](=O)[O-])c1Sc1n[nH]c(-c2ccc(Cl)cc2)n1`, for which the TGI in test [1] turned out to be 27.6 µM; in test [2], 8.3 µM; in test [3], 70.7 µM; in test [4], 49.7 µM; in test [6] it was 59 µM; in test [5] it was 36.7 µM.

For `CCCCCCCCCCCCCCCCc1c(C(=O)OC)nc(NC#N)[nH]c1=O`, the TGI in test [1], in test [2], in test [3], in test [4], in test [6] and in test [5] was above 25 µM each time.

For the compound `CN1CCc2ccccc2C1Cc1ccccc1NC(=O)c1sc2ccccc2c1Cl` (stereo not given), the TGI in test [7] was above 100 µM.

As to `CN(C)CC1(C)CC/C(=C\c2ccc(Cl)cc2)C1=O` (stereo not given), the TGI was above 100 µM in test [1]; above 100 µM in test [2]; above 100 µM in test [3]; 56.2 µM in test [4]; 40.8 µM in test [5].

The compound `Nc1nc(-c2cccnc2)cc(-c2cc(-c3cccnc3)nc(N)n2)n1` had a TGI in test [7] above 100 µM.

The record behind these values is PubChem BioAssay (NCI).
